Assay results: the supplement of paper PMC10307832

Key:
Assay in all cases: relative viability (nuclei count vs DMSO), 5 days (fraction); higher = more cells survive
Trametinib + Linsitinib = compound: CC(=O)Nc1cccc(-n2c(=O)n(C3CC3)c(=O)c3c(Nc4ccc(I)cc4F)n(C)c(=O)c(C)c32)c1 [Trametinib] + C[C@]1(O)C[C@@H](c2nc(-c3ccc4ccc(-c5ccccc5)nc4c3)c3c(N)nccn32)C1 [Linsitinib] (partner 1 µM)
In short: (§1)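 Each reported value is a median over duplicate plates. It expresses relative viability: treated-well nuclei count divided by vehicle-well nuclei count. Lung cancer cell lines in 1536-well plates were dosed by pin tool a day after seeding, alone with one drug or with a fixed anchor-drug dose plus five library-drug doses (not always all listed) in √10 steps, and nuclei were counted after 5 days.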

Trametinib + Olaparib = compound: CC(=O)Nc1cccc(-n2c(=O)n(C3CC3)c(=O)c3c(Nc4ccc(I)cc4F)n(C)c(=O)c(C)c32)c1 [Trametinib] + O=C(c1cc(Cc2n[nH]c(=O)c3ccccc23)ccc1F)N1CCN(C(=O)C2CC2)CC1 [Olaparib] (partner 8 µM)
In short: as §1

[1] = compound: CN1C=C(C2=CC=CC=C21)/C=C\3/C4=C(C=CC=N4)NC3=O + CC(C)C[C@H](NC(=O)[C@H](Cc1ccccc1)NC(=O)c1cnccn1)B(O)O [Bortezomib] (partner 0.002 µM)
In short: as §1

[2] = compound: CN1C=C(C2=CC=CC=C21)/C=C\3/C4=C(C=CC=N4)NC3=O + Nc1ncn([C@H]2C[C@H](O)[C@@H](CO)O2)c(=O)n1 [Decitabine] (partner 2 µM)
In short: as §1

Row | Cell Line | relative viability (Trametinib + Linsitinib; first compound 0.0025 µM) | relative viability (Trametinib + Linsitinib; first compound 0.007906 µM) | relative viability (Trametinib + Linsitinib; first compound 0.025 µM) | relative viability (Trametinib + Linsitinib; first compound 0.07906 µM) | relative viability (Trametinib + Linsitinib; first compound 0.25 µM) | relative viability (Trametinib + Olaparib; first compound 0.0025 µM) | relative viability (Trametinib + Olaparib; first compound 0.007906 µM) | relative viability (Trametinib + Olaparib; first compound 0.025 µM) | relative viability (Trametinib + Olaparib; first compound 0.07906 µM) | relative viability (Trametinib + Olaparib; first compound 0.25 µM) | relative viability ([1]; first compound 0.02 µM) | relative viability ([1]; first compound 0.06325 µM) | relative viability ([1]; first compound 0.2 µM) | relative viability ([1]; first compound 0.6325 µM) | relative viability ([1]; first compound 2 µM) | relative viability ([2]; first compound 0.02 µM) | relative viability ([2]; first compound 0.06325 µM) | relative viability ([2]; first compound 0.2 µM) | relative viability ([2]; first compound 0.6325 µM) | relative viability ([2]; first compound 2 µM)
1 | HCC-44 | 0.734 | 0.592 | 0.334 | 0.43 | 0.321 | 0.96 | 1.06 | 1.08 | 0.897 | 0.87 | 0.888 | 0.8 | 0.858 | 0.756 | 0.847 | 0.877 | 0.938 | 0.95 | 0.962 | 0.838
2 | HCC-78 | 0.543 | 0.323 | 0.314 | 0.354 | 0.36 | 0.774 | 0.642 | 0.82 | 0.808 | 0.557 | 0.41 | 0.499 | 0.519 | 0.432 | 0.469 | 0.557 | 0.588 | 0.652 | 0.614 | 0.65
3 | HCC-366 | 0.538 | 0.288 | 0.196 | 0.133 | 0.116 | 0.294 | 0.293 | 0.206 | 0.145 | 0.0982 | 0.892 | 0.985 | 1.08 | 1.16 | 1.08 | 0.304 | 0.335 | 0.349 | 0.369 | 0.342
4 | HCC-827 | 0.958 | 0.893 | 0.944 | 0.886 | 0.753 | 0.612 | 0.571 | 0.563 | 0.507 | 0.337 | 0.898 | 1.02 | – | 1.03 | 1.03 | 0.315 | 0.297 | – | 0.327 | 0.297
5 | HOP-62 | 1.06 | 0.921 | 0.705 | 0.487 | 0.152 | 0.395 | 0.377 | 0.417 | 0.376 | 0.125 | 1.05 | 0.746 | 0.285 | 0.535 | 0.529 | 0.184 | 0.206 | – | 0.188 | 0.241
6 | LC-2-ad | 0.871 | 0.716 | 0.729 | 0.502 | 0.381 | 0.683 | 0.663 | 0.706 | 0.695 | 0.604 | 1 | 0.942 | 0.964 | 0.971 | 0.965 | 0.772 | 0.826 | 0.783 | 0.861 | 0.817
7 | LCLC-97TM1 | 0.185 | 0.195 | 0.147 | 0.133 | 0.119 | 0.304 | 0.41 | 0.254 | 0.188 | 0.0956 | – | 0.444 | – | 0.521 | 0.517 | – | 0.189 | 0.205 | 0.208 | 0.241
8 | LCLC-103H | 0.968 | 0.897 | 0.746 | 0.904 | 0.933 | 0.723 | 0.638 | 0.655 | 0.593 | 0.581 | 0.951 | 0.984 | 0.994 | 1.22 | 1.11 | 0.724 | 0.732 | 0.684 | 0.696 | 0.732
